The values that follow come from publication PMC7272640, “Molecular docking, synthesis and biological evaluation of Vascular Endothelial Growth Factor (VEGF) B based peptide as antiangiogenic agent targeting the second domain of the Vascular Endothelial Growth Factor Receptor 1 (VEGFR1D2) for anticancer application” (Signal Transduction and Targeted Therapy, 2020).

Where a SMILES comes first, the peptide text is derived from it.

One data set has as its system HUVEC. The experiment in a line: Wound healing assay (HUVEC migration). The format is cell-based, human. Conditions: compared with control; VGB3 0, 0.015, 0.03, 0.061 μM, 0.03 μg/ml VEGF-A, 2% FBS, 24 h. The protocol: 3 × 10^3 HUVECs were grown to confluence in 96-well plate. The monolayer was mechanically wounded using a sterile pipette tip followed by washing with PBS. The cells were incubated in the serum-starved DMEM medium containing 2% FBS and different concentrations (0, 0.015, 0.03, 0.061 μM) of VGB3 in the presence of (0.03 μg.ml^-1) VEGF-A for 24 h. Then HUVECs were washed with PBS two times and fixed using 4% paraformaldehyde at room temperature. After staining the cells with Giemsa, photographs were taken under a microscope (scale bar: 20 μm; Olympus BX-51, Japan) immediately and after 24 h incubation at the same location. Data are expressed as the average percentage wound closure for each group (n=6) of initial migrated cells at time 0 (T0), or as the percentage inhibition compared with a time-matched control. The wound area (the open area of the scratch) was quantified using ImageJ: (1 - (wound area at 24 h / wound area at 0 h))×100.

In a further data set the test system is 4T1 tumor tissues. Nature of the data set: Immunohistochemistry / TUNEL of excised 4T1 tumors. The format is in vivo, Female BALB/c mice. The following applies: VGB3 0.2 mg/kg vs PBS, n = 6. How it is done:
(§1) Female BALB/c mice (5–7 weeks) were purchased from the Laboratory Animal Center of the Iran Pasteur Institute and maintained under standardized environmental conditions: 12 h light-dark phases, with free access to food and water. For treatment with VGB3, Tumor cells (4T1; 1×10^6 cells/500 μl or 1×10^5 cells/50 μl) were injected subcutaneously into the right flanks of mice (n=3–5). To generate the metastatic model, 4T1 tumor models were sterilized, excised from the breast cancer-bearing BALB/c mice, cut into pieces of <0.3 cm3, and subcutaneously implanted into the animals' right flanks under ketamine (100 mg/kg, i.p.) and xylazine (10 mg/kg, i.p.) anesthesia. Animals carrying tumors of size ~100mm3 were randomized to 6 mice/group (n=6). The treatment groups received 0.02, 0.1, 0.2 or 0.5 mg/kg of VGB3 on alternate days and the control group received PBS i.v. into the mice for 19 days from day 13. The tumor volume was measured every 5 days by a digital Vernier caliper (Mitutoyo, Japan), using the following formula: v=a^2×b×0.52 (where a is the shortest and b is the longest diameter). All studies were performed under the guidelines and with the approval of the Institutional Animal Care and Use Committee (IACUC) of Tehran University of Medical Sciences.
Excised tumor tissues for immunohistochemical (IHC) analysis were fixed in formalin (4%), embedded in paraffin, sectioned, and stained with hematoxylin-eosin (H&E). IHC was followed by heat-induced epitope retrieval in a buffer at pH 9.0. IHC staining for CD31 and CD34 (to assign MVD), Ki67 (to determine the percentage of Ki67-positive cells), and P53 and Bcl-2 (to determine the fraction of apoptotic cells relative to total cells) was performed on formalin-fixed paraffin-embedded sections. Staining for cell death with TUNEL (terminal deoxynucleotidyl transferase nick-end labeling)) was performed, followed by enzymatic development in diaminobenzidine (DAB) (Invitrogen, Carlsbad, California, USA) detection and counter-staining in hematoxylin. Images were acquired by microscopy (Olympus BX-51, Japan). Numbers of positive cells were determined by analyzing five random tissue samples under scale bars 100 and 20 μm, with quantification using ImageJ.

The subject of data set [1] is human extracellular domains (ECD) of VEGFR1D2. Nature of the data set: ELISA-based displacement assay (VEGF-A/VEGFR-1 interaction). In kind it is binding. Conditions: at 100 μM VGB3; btVEGF165 100 pM; plate coated with VEGFR1D2 ECD 20 ng/well, 5 nM; PBS; peptide 45 min at 37 °C then 2 h with btVEGF-A165; chemiluminescence; triplicate wells. The protocol:
A white flat-bottom high-binding 96-well plate (COSTAR 3922) was coated with human extracellular domains (ECD) of VEGFR1D2 (R&D Systems, Abingdon, UK) in PBS (20 ng/well, 5 nM) overnight at 4 °C. The plate was washed twice with 200 μL of wash buffer (PBS containing 0.1% (v/v) Tween 20) and treated with 200 μL of blocking buffer (PBS containing 3% (w/v) BSA) at 37 °C for 2 h, followed by two washes with wash buffer. Volumes of 50 μL of peptide VGB3 solution at twice the desired final concentration in PBS were added in triplicate wells and the plate was kept at 37 °C for 45 min. A solution of btVEGF-A165 (R & D Systems, Abingdon, UK) at twice the desired final concentration (100 pM) in 50 μL PBS was added. After 2 h incubation, the plate was washed two times with wash buffer. […] Volumes of 100 μL of Supersignal West Pico Chemiluminescent Substrate (Pierce, Rockford, IL, USA) were finally added and the chemiluminescence was quantified with a TECAN spectrophotometer plate-reader. The percentages of displacement were calculated by the following formula: 100×[1 – (S − NS)/(MS – NS)] where S is the signal measured, NS is the nonspecific binding signal defined as the signal measured in the absence of coated receptor on the microplate, and MS is the maximum binding signal obtained with btVEGF-A165 without the peptide VGB3.
For orientation: ELISA stands for enzyme-linked immunosorbent assay.

Data set [2] concerns 4T1 mammary carcinoma cells. The format is cell-based, murine. How it is done:
2× 10^3 HUVEC and 4T1 cell-line were cultured in DMEM medium supplemented with 10% FBS at 37 °C with 5% CO2 in 96-well plate. After 24 h, The cells were incubated in the media supplemented with 2% FBS, different concentrations (0, 0.015, 0.03, 0.061 μM) of VGB3 in the presence of (0.03 μg.ml^-1) VEGF-A (Sigma, St. Louis, MO) for 24 and 48 respectively. Then, cell proliferation was quantified by 3-(4,5–dimethylthiazol-2-yl)-2 ,5-diphenyl tetrazolium bromide (MTT) (Sigma, St. Louis, MO) solution (5 mg/mL) in PBS (pH 7.4) was added to each well and the plates were incubated in the dark at 37 °C for 4 h. Then the insoluble purple formazan product was dissolved by dimethyl sulfoxide (DMSO). Absorbance was measured at 570 nm using an ELISA plate reader. The assay was performed in triplicate.

Data set [3] can be described thus: Body weight of tumor-bearing mice. The format is in vivo, Female BALB/c mice. The following applies: VGB3 0.02-0.5 mg/kg i.v., day 13 till 31; two-way ANOVA. The protocol: as §1

A word on the IC50: it is the concentration that gives 50% inhibition. Lower therefore signals greater potency.

Turning to `CC(C)C[C@@H]1NC(=O)CNC(=O)[C@H](CC(=O)O)NC(=O)[C@H](CC(=O)O)NC(=O)[C@@H]2CCCN2C(=O)[C@@H]2CCCN2C(=O)[C@H](CCCNC(=N)N)NC(=O)[C@@H](NC(=O)[C@@H](N)CCC(=O)O)CSSC[C@@H](C(=O)O)NC1=O` [VGB3] (HELM PEPTIDE1{E.C.R.P.P.D.D.G.L.C}$PEPTIDE1,PEPTIDE1,2:R3-10:R3$$$V2.0), in the data set on HUVEC, the “migration of wounded HUVEC monolayers” value is listed as “inhibits migration of wounded HUVEC monolayers compared with the control”. In the data set with 4T1 tumor tissues (IHC), the Bcl-2 expression result is “decreased”, the CD31 expression entry is “decreased”, the CD34 expression result is recorded as “decreased” and the Ki67 expression entry is “decreased”. The p53 expression entry in the data set on 4T1 tumor tissues (IHC) was “increased”. Also, in the data set with 4T1 tumor tissues, the TUNEL staining entry is recorded as “increased”. Further, in data set [1], the “displacement of btVEGF165” value is reported as “up to 63%”. Further, in data set [2] (48 h), the IC50 was 30 nM. Further, in data set [2] (VGB3 IC50 30 nM in 4T1 vs ~180 nM for VEGFR1D2 fragments in HUVEC (ref 3)), the “IC50 fold lower than that of VEGFR1D2 fragments” value is recorded as 6 fold. For the same compound, the “body weight differences vs PBS control” value in data set [3] was “no significant (NS) differences”.
